Assay results as given in patent publication US20240189201A1, “HAIR SERUM AND SUPPLEMENT” (priority 2021, published 2024).

Assay: Comparison of hair serum compositions formulated with different crystalline CBDs (type A vs type B)
Conditions: hair serum according to Example 2, differing only in the crystalline CBD used
Description: Two hair serum compositions are prepared according to Example 2, the only difference being that the crystalline CBD used in the formulation is either of type A (needle-like crystals; FIG. 1) or type B (bunch/cluster-like; FIG. 2).
Type A crystalline CBD is sourced from Enecta, while type B CBD is sourced from Pharma Hemp.

C=C(C)[C@@H]1CCC(C)=C[C@H]1c1c(O)cc(CCCCC)cc1O [type A CBD, Cannabidiol]
Activity / potency of CBD in hair serum, type A versus type B: significantly more active than type B CBD | Activity / potency of CBD in hair serum, type A versus type B (listed as crystal structure A): significantly more potent than CBD with a different crystal structure
